# Results reported in US12246004B2, “Therapeutic treatment of microsatellite unstable cancers” (THE BROAD INSTITUTE, INC., priority 2018, dated 2025).
# Assays:
# [1] = tested on: KM12 cells; experiment: Luciferase competitive growth assay, rescue by ectopic WRN cDNA; type: cell-based
# Description: The catalytically active version, exonuclease-dead (E84A), helicase-dead (K577M) and dually exonuclease and helicase-dead (E84A/K577M) versions of WRN cDNA were a gift from R. J. Monnat (Addgene, plasmids 46038, 46036, 46035 and 46037, respectively). […] The WRN sequence was cloned into a modified lentiviral expression vector, pLX_TRC209, under an EF1A promoter and modified to contain a neomycin-selectable marker. Sanger sequencing of the vectors and genomic DNA after integration were performed to confirm sequence identity. Lentivirus was produced as described below and transduced into dually Cas9-Firefly-luciferase-expressing KM12 cells to create stable ectopic WRN cDNA-expressing cell lines.
# Dual Cas9-Firefly-luciferase- and Renilla-luciferase-expressing cells were generated by transduction of Firefly-luciferase cDNA and Renilla-luciferase cDNA, respectively, in a pLX_TRC313 lentiviral expression vector containing a hygromycin-resistance gene. After hygromycin selection, these two versions of the cell line were co-seeded in a 96 well plate at the following densities per well for each version: ES2 2×10^3 cells per well, OVK18, 3×10^3 cells per well; SW620, 4×10^3 cells per well; KM12, 4×10^3 cells per well. The following day, cells were transduced with lentivirus expressing the indicated sgRNA and a puromycin-resistance gene in six replicates. The day following viral transduction, the medium was changed to include puromycin. Cells were split and assayed with the Dual-Glo Luciferase Assay System (Promega) per the manufacturer's recommendations every 3-4 days. Luminescence was determined using the Perkin Elmer EnVision 2105. Values are presented as the ratio of Firefly to Renilla-luciferase luminescence signal per condition and normalized to the mean of the corresponding negative control sgRNAs for each cell line. Experiments in FIG. 2C and FIG. 7B were performed three times. Two-tailed Student's t-tests were performed when comparing single sgRNAs (FIG. 2C). Two-way ANOVAs were performed when multiple WRN sgRNAs were compared to negative controls (FIG. 7B).
# [2] = tested on: WRN; experiment: Immunoblot of WRN levels after sgRNA transduction; type: cell-based; conditions: KM12 cells expressing WRN cDNA (FIG. 2B)
# Description: For immunoblotting, cells were lysed in RIPA buffer (Sigma-Aldrich) supplemented with complete Protease Inhibitor Cocktail (Roche, 11697498001) and a Halt Phosphatase Inhibitor Cocktail (Thermo Fischer Scientific, 78428). For etoposide and hydroxyurea treatment (FIG. 4A), cells were treated with 10 μM etoposide and 1 mM hydroxyurea, respectively, 6 h before collection. Lysates were fractionated in 4-12% Bis-Tris gels (Invitrogen), which was then transferred to PVDF membranes (Immobilon-FL PVDF Millipore, IPFL00010) and blocked for an hour with Odyssey Blocking Buffer (PBS) (LI-COR Biosciences, 927-40000). Types of primary antibodies and the dilutions used for immunoblotting were as follows: anti-phospho-CHK2 (T68) (R&D Systems, AF1626, 1:400); anti-total CHK2 (Cell Signaling Technology, 3440, 1:1,000); anti-[…] (Cell Signaling Technology, 9718, 1:1,000); anti-GAPDH (Cell Signaling Technology, 5174, 1:1,000); anti-MLH1 (Cell Signaling Technology, 3515, 1:1,000); anti-MSH3 (BD Biosciences, 611390, 1:400); anti-WRN (Novus Biologicals, nb100-472, 1:1,000). The following secondary antibodies were used: goat anti-rabbit IRDye 800CW (LI-COR, 926-32211, 1:5,000), goat anti-rabbit IRDye 680LT (LI-COR, 926-68021), and goat anti-mouse IRDye 800CW (LI-COR, 926-32210). […]
# [3] = tested on: KM12 xenografts; experiment: KM12 xenograft growth with doxycycline-inducible shRNA; type: in vivo, mice; conditions: doxycycline induction of shRNA (FIG. 2D)
# Description: Studies were approved by the Institutional Animal Care and Use Committee (IACUC) of the Broad Institute under animal protocol 0194-01-18. IACUC guidelines on the ethical use and care of animals were followed. For growth curves, 10^6 KM12 cells expressing WRN shRNA 1 or WRN-C911 shRNA 1 were inoculated subcutaneously into right hind flank of approximately 8-week-old female SCID Hairless Outbred (SHO) mice obtained from Charles River Laboratories. Tumors were measured twice weekly with calipers and the tumor volumes were calculated using the formula π/6×(width^2×length). When primary tumors reached around 100 mm^3, the mice were randomized onto Control Teklad Global 18% Protein Rodent Diet or Teklad Global 18% Protein Rodent Diet containing 625 mg kg^−1 doxycycline hyclate. Mice remained on their respective diets throughout the remainder of the study. Animal body weights were recorded twice weekly during the course of the study for body condition scoring. For the growth curves, n=5 (4 from days 15-18), 5, 4, 4 for WRN shRNA 1 without doxycycline, WRN shRNA 1 with doxycycline, WRN-C911 shRNA 1 without doxycycline, WRN-C911 shRNA 1 with doxycycline treatment, respectively. One mouse treated with KM12 cells with WRN shRNA 1 without doxycycline was euthanized before day 15 because of tumor ulceration. No experiments exceeded the maximal tumor volumes of 2,000 mm^3 set forth by the IACUC. […]
# [4] = tested on: MSI cells; experiment: Telomere PNA-FISH of metaphase spreads; type: cell-based; conditions: two MSI cell lines; 96 h after induction of shRNA
# Description: (§1) In brief, 3×10^6 cells were plated in 10-cm dishes in the absence of doxycycline. For cells treated with doxycycline, 0.2 μg ml^−1 of doxycycline was added and refreshed every 48 h. Then, 96 h after adding doxycycline, cells were treated with 10 μg ml^−1 of colcemid for 3 h and then detached with trypsin. Half of the cell pellet was saved for immunoblot analysis. The other half of the cell pellet was treated with a hypotonic solution (60 mM KCl) and fixed with a 3:1 ratio of methanol:acidic acid. Metaphases were spread onto a slide and fixed with 3% formalin. The PNA-FISH probe ((CCCTAA)3 PNA probe (PNA Bio)) was applied to the slides and denatured at 85° C. for 3 min. The slides were washed with washing solution I (70% formamide, 0.1% Tween-20, 0.1% BSA in 10 mM Tris buffer, pH 7.5) twice and three times with washing solution II (150 mM NaCl, 0.1% Tween-20, 0.1% BSA in 50 mM Tris buffer, pH 7.5). Cy5-ATTCGTTGGAAACGGGA (SEQ ID NO: 28) was used to label centromeres. Images were captured with a Nikon Eclipse 80i microscope and processed with the NISElements BR software. In total, 30 to 60 metaphases were analyzed for cells of the indicated conditions. Two-tailed Student's 1-tests were performed (FIG. 4E). These experiments were performed twice.
# [5] = tested on: MSS cells; experiment: Telomere PNA-FISH of metaphase spreads; type: cell-based; conditions: two MSS cell lines; 96 h after induction of shRNA
# Description: as §1
Substance,"Rescue of viability by WRN cDNA ([1]; Cas9-expressing KM12 cells, 9 days after sgRNA transduction (FIG. 2C))",Rescue of viability by exonuclease-dead (E84A) WRN cDNA ([1]; KM12 cells (FIGS. 2B and 2C)),Rescue of viability by helicase-dead (K577M) WRN cDNA ([1]; KM12 cells (FIGS. 2B and 2C)),Silencing of endogenous versus exogenous WRN (immunoblot) [2],Tumor growth [3],"Chromosomal integrity (DSBs, fragmentation) in metaphase spreads [4]","Chromosomal integrity (DSBs, fragmentation) in metaphase spreads [5]"
"WRN EIJ sgRNA: sgRNA targeting a WRN exon-intron junction, target sequence AGCACGTACATAAGCATCAG (SEQ ID NO: 4) (only the sgRNA target sequence is given, scaffold and chemistry not given here, further chemistry not given here)",rescued,did not attenuate rescue,prevented rescue,"silencing endogenous WRN, but not exogenous WRN cDNA",,,
"WRN shRNA 1: shRNA targeting WRN chosen from project DRIVE, CAGCACTGCCAATGGTTCCAA; SEQ ID NO: 5",,,,,significantly impaired tumor growth,induced DSBs and fragmentation throughout chromosomes,but not in MSS cells
